# Measurements as given in PMC11672294, “The Antipsychotic Drug Aripiprazole Suppresses Colorectal Cancer by Targeting LAMP2a to Induce RNH1/miR‐99a/mTOR‐Mediated Autophagy and Apoptosis” (Advanced Science, 2024).
# Structures can show the parent of a compound that is named as a salt.
# System: HT29
# Conditions: 72 h, relative to DMSO, 10 µM, Relative cell viability (%)
# Source text: To investigate the key signaling pathways and biological processes involved in CRC progression, we analyzed the National Center for Biotechnology Information Gene Expression Omnibus (GEO) dataset GSE115313, which included 42 CRC and paired normal tissues (Figure 1A). […] Next, we performed an Annexin V‐fluorescein isothiocyanate (FITC)/propidium iodide (PI) staining assay to determine the effect of aripiprazole on apoptosis in CRC cells. […] A) Principal component analysis of GEO dataset (GSE115313), which includes 42 CRC and paired normal tissues. B) Gene Ontology pathway analysis of the DEPs between CRC and paired normal tissues. […] D) Schematic diagram for identifying anticancer drugs amongst an US Food and Drug Administration‐approved small‐molecule library (616 compounds) using WST‐1 assay. E) HT29 cells were treated with the 616 drugs (10 µM) individually or with dimethyl sulfoxide for 72 h, followed by WST‐1 assay. […] J) Mice bearing HT29‐derived tumor xenografts were intragastrically administered with aripiprazole (10 or 20 mg kg^−1) once every 2 d, n = 6 mice/group. […] Bars, SD; ^* p < 0.05; ^** p < 0.01; ^*** p < 0.001; ns, no significant difference. The WST‐1 Cell Proliferation and Cytotoxicity Assay Kit (Beyotime Biotechnology, Shanghai, China) was used to measure cell viability, as described previously.^[ [10] ^] CRC cells were seeded into 96‐well plates and treated with different drug concentrations. Following that, WST‐1 was added to the plate and incubated with the cells for 2 h, at 37 °C. Absorbance at the wavelength of 450 nm was measured using an automated microplate spectrophotometer (BioTek Instruments, Winooski, VT, USA).
row,Structure (SMILES),Relative cell viability (%)
1,COc1cc2nc(N3CCN(C(=O)C4CCCO4)CC3)nc(N)c2cc1OC (centres unmarked) [Terazosin],88.03%
2,CCN(C)C(=O)Oc1cccc([C@H](C)N(C)C)c1 [Rivastigmine Tartrate],125%
3,CC/C(=C(\c1ccccc1)c1ccc(OCCN(C)C)cc1)c1ccccc1 [Tamoxifen Citrate],47.42%

# Same assay, conditions: 72 h, relative to DMSO; 10 µM
row,Structure (SMILES),Relative cell viability (%)
1,NC(=O)c1cnccn1 [Pyrazinamide],83.05%
2,CC(C)n1c(/C=C/[C@@H](O)C[C@@H](O)CC(=O)O)c(-c2ccc(F)cc2)c2ccccc21 (racemic) [Fluvastatin Sodium],103.4%
3,CC(=O)OCC(=O)[C@H]1CC[C@H]2[C@@H]3CCC4=CC(=O)CC[C@]4(C)[C@H]3CC[C@]12C [Deoxycorticosterone acetate],81.21%
4,Cc1c(C(=O)NN2CCCCC2)nn(-c2ccc(Cl)cc2Cl)c1-c1ccc(Cl)cc1 [Rimonabant],79.61%
5,CC(C)C[C@H](NC(=O)[C@H](CCc1ccccc1)NC(=O)CN1CCOCC1)C(=O)N[C@@H](Cc1ccccc1)C(=O)N[C@@H](CC(C)C)C(=O)[C@@]1(C)CO1 [Carfilzomib (PR-171)],15.53%
6,"CC(C)OC(=O)[C@H](C)N[P@](=O)(OC[C@H]1O[C@@H](n2ccc(=O)[nH]c2=O)[C@](C)(F)[C@@H]1O)Oc1ccccc1 [Sofosbuvir (PSI-7977, GS-7977)]",121.8%
7,CCOC(=O)[C@H](CCc1ccccc1)N[C@@H](C)C(=O)N1[C@H](C(=O)O)C[C@@H]2CCC[C@@H]21 [Ramipril],75.42%
8,CC(=O)O[C@]1(C(C)=O)CC[C@H]2[C@@H]3C=C(C)C4=CC(=O)CC[C@]4(C)[C@H]3CC[C@@]21C [Megestrol Acetate],68.07%
9,CCOC(=O)[C@H]1O[C@@H]1C(=O)N[C@@H](CC(C)C)C(=O)NCCC(C)C [Aloxistatin],100.9%
10,Nc1nc(N)nc(-c2cc(Cl)ccc2Cl)n1 [Irsogladine],176.5%
11,N=C(N)NC(=O)Cc1c(Cl)cccc1Cl [Guanfacine Hydrochloride],129.1%
12,CN(C)CCOc1ccc(/C(=C(/CCCl)c2ccccc2)c2ccccc2)cc1 [Toremifene Citrate],34.75%
13,CC(C)(CO)[C@@H](O)C(=O)NCCCO [D panthenol],121.4%
14,Cc1nc(NC(=O)N2CCC[C@H]2C(N)=O)sc1-c1ccnc(C(C)(C)C(F)(F)F)c1 [BYL719],50.49%
15,Clc1ccc(C(Cn2ccnc2)OCc2ccsc2Cl)c(Cl)c1 (centres unmarked) [Tioconazole],135.7%
16,C=CCN1CC[C@]23c4c5ccc(O)c4O[C@H]2C(=O)CC[C@@]3(O)[C@H]1C5 [Naloxone HCl],95.63%
17,COc1ccc(Cl)c(Nc2nc3ccccc3nc2NS(=O)(=O)c2cccc(NC(=O)C(C)(C)N)c2)c1 [Pilaralisib (XL147)],48.29%
18,CN(C)C/C=C/C(=O)Nc1cc2c(Nc3ccc(F)c(Cl)c3)ncnc2cc1O[C@H]1CCOC1 [Afatinib (BIBW2992) Dimaleate],20.09%
19,CCCCNc1cc(C(=O)O)cc(S(N)(=O)=O)c1Oc1ccccc1 [Bumetanide],61.84%

row,Structure (SMILES),Relative cell viability (%)
1,c1ccc(-c2ccc(C(c3ccccc3)n3ccnc3)cc2)cc1 (centres unmarked) [Bifonazole],88.14%
2,Nc1nc(O)c2ncn(COC(CO)CO)c2n1 [Ganciclovir],103.4%
3,COc1ccccc1N1CCN(CC(O)COc2cccc3ccccc23)CC1 (centres unmarked) [Naftopidil],100.8%
4,Nc1nc(N)nc(NC2CC2)n1 [Cyromazine],68.48%
5,C=CN1CCCC1=O [Povidone iodine],91.88%
6,C[C@@H](O)[C@H]1C(=O)N2C(C(=O)O)=C(S[C@@H]3CN[C@H](CNS(N)(=O)=O)C3)[C@H](C)[C@H]12 [Doripenem Hydrate],88.32%
7,CC(C)Oc1ccc(-c2nc(-c3cccc4c3CC[C@@H]4NCCO)no2)cc1C#N [Ozanimod (RPC1063)],47.01%
8,NC(=O)CN1CC(O)CC1=O (centres unmarked) [Oxiracetam],54.85%
9,C[C@]12CCC(=O)C(O)=C1CC[C@@H]1[C@@H]2CC[C@]2(C)C(=O)CC[C@@H]12 [Formestane],110.8%
10,CC(NC(C)(C)C)C(=O)c1cccc(Cl)c1 (centres unmarked) [Amfebutamone HCl],104.9%
11,COc1ccc(C[C@@H](C)NC[C@H](O)c2ccc(O)c(NC=O)c2)cc1 (racemic) [Formoterol Hemifumarate],95.63%
12,C[C@H]1O[C@@H](n2cc(F)c(=O)[nH]c2=O)[C@H](O)[C@@H]1O [Doxifluridine],150.2%
13,O=c1[nH]c(=O)n(C2CCCO2)cc1F (centres unmarked) [FT-207 (NSC 148958)],74.3%
14,C#Cc1cccc(Nc2ncnc3cc(OCCOC)c(OCCOC)cc23)c1 [Erlotinib],79.06%
15,CC1Cc2ccccc2N1NC(=O)c1ccc(Cl)c(S(N)(=O)=O)c1 (centres unmarked) [Indapamide],71.61%
16,O=C(CCCCCCNC(=O)c1cnc(N(c2ccccc2)c2ccccc2)nc1)NO [Rocilinostat (ACY-1215)],32.91%
17,CC1=NN(c2ccc(C)c(C)c2)C(=O)/C1=N\Nc1cccc(-c2cccc(C(=O)O)c2)c1O [Eltrombopag Olamine],122%
18,CCc1ccc(CCOc2ccc(CC3SC(=O)NC3=O)cc2)nc1 (centres unmarked) [Pioglitazone HCl],158.4%
19,Nc1ncn([C@@H]2O[C@H](CO)[C@@H](O)[C@H]2O)c(=O)n1 [Azacitidine],56.36%

row,Structure (SMILES),Relative cell viability (%)
1,CCOC(=O)c1ccc(OC(=O)CCCCCNC(=N)N)cc1 [Gabexate Mesylate],124.4%
2,O=C(O)/C=C/c1ccc(Cn2ccnc2)cc1 [Ozagrel HCl],127.9%
3,C[C@]12CCC3=C4CCC(=O)C=C4CC[C@H]3[C@@H]1CC[C@@]2(O)CC#N [Dienogest],96.11%
4,COc1cc(C(=O)O)ccc1NC(=O)[C@@H]1N[C@@H](CC(C)(C)C)[C@](C#N)(c2ccc(Cl)cc2F)[C@H]1c1cccc(Cl)c1F [Idasanutlin (RG-7388)],98.29%
5,CCc1oc2ccccc2c1C(=O)c1cc(Br)c(O)c(Br)c1 [Benzbromarone],82.12%
6,COCCc1ccc(OCC(O)CNC(C)C)cc1 (centres unmarked) [Metoprolol Tartrate],94.49%
7,CC(C)(Sc1cc(C(C)(C)C)c(O)c(C(C)(C)C)c1)Sc1cc(C(C)(C)C)c(O)c(C(C)(C)C)c1 [Probucol],130.3%
8,OC[C@@H](O)[C@@H](O)[C@H](O)[C@H](O)CO [D-Mannitol],114.9%
9,CCn1cc(C(=O)O)c(=O)c2ccc(C)nc21 [Nalidixic acid],106.7%
10,Cc1cc(Nc2ncc(Cl)c(Nc3ccccc3S(=O)(=O)C(C)C)n2)c(OC(C)C)cc1C1CCNCC1 [LDK378],0%
11,CCN(CC)CCNC(=O)c1c(C)[nH]c(/C=C2\C(=O)Nc3ccc(F)cc32)c1C [Sunitinib],29.06%
12,CNC(=O)[C@@H](NC(=O)[C@H](CC(C)C)[C@H](O)C(=O)NO)C(C)(C)C [Marimastat(BB-2516)],121.4%
13,"CNC(=O)[C@H](Cc1c[nH]c2ccccc12)NC(=O)[C@@H](CC(=O)NO)CC(C)C [Ilomastat (GM6001, Galardin)]",95.73%
14,CN1C(=O)CCS(=O)(=O)C1c1ccc(Cl)cc1 (centres unmarked) [Chlormezanone],142.8%
15,Cc1cnc(NC(=O)C2=C(O)c3ccccc3S(=O)(=O)N2C)s1 [Meloxicam],51.27%
16,CCc1cnn2c(NCc3ccc[n+]([O-])c3)cc(N3CCCC[C@H]3CCO)nc12 [Dinaciclib (SCH727965)],33.01%
17,C[N+](C)(C)CCO [Choline Chloride],79.39%
18,COc1cccc2c1C(=O)c1c(O)c3c(c(O)c1C2=O)C[C@@](O)(C(=O)CO)C[C@@H]3O[C@H]1C[C@H](N)[C@@H](O)[C@H](C)O1 [Epirubicin HCl],10.44%
